Results reported in patent publication US11020398B2, “Amino-pyrrolopyrimidinone compounds and methods of use thereof” (ArQule, Inc., priority 2016, dated 2021).
pIC50: −log10 of the molar value.

Tests used:
[1] = molecular target: full-length activated BTK (wildtype) (Homo sapiens (Human), UniProt Q06187); test: AlphaScreen assay, wild-type BTK; assay type: biochemical
Procedure: (§1) The activated BTK was frozen in 50 μl aliquots (125-150 μg/ml).
(§2) BTK activity was assayed using a PLCγ2-derived biotinylated peptide substrate (biotin-[…]-OH) and AlphaScreen™ (Amplified Luminescent Proximity Homogeneous Assay) technology. The extent of peptide phosphorylation was determined by using acceptor beads conjugated to phosphotyrosine antibody that recognized the phosphorylated peptide and donor beads conjugated to streptavidin that binds to the biotin on the peptide. Excitation of the donor beads converted ambient oxygen to excited singlet oxygen which when in close proximity to acceptor beads, reacted with acceptor beads resulting in signal amplification.
(§3) Test inhibitors and controls were prepared in 10% DMSO at 10-fold the desired final concentration and added to each well of a reaction plate (Corning 96-well half-area solid white nonbinding surface plate) in a volume of 2.5 μl. […] The plate was incubated for 120 min at room temperature and the reaction stopped by the addition of 10 μl stop/detection mixture containing 35 mM EDTA, 50 ug/ml AlphaScreen™ Streptavidin Donor beads (final concentration is 500 ng/well) and AlphaScreen™ Phospho-tyrosine (P-Tyr-100) Acceptor beads (final concentration is 500 ng/well) under green light conditions. The plate was incubated overnight at room temperature in the dark and the plates read on the BMG PolarStar Omega ([…], Gain=4000). Data were archived and analyzed with a 4-parameter fit to generate IC50 values using the CDD Vault from Collaborative Drug Discovery.

[2] = molecular target: full-length activated BTK mutant C481S (Homo sapiens (Human), UniProt Q06187, C481S); test: AlphaScreen assay, BTK mutant C481S; assay type: biochemical; details: for inhibition at 10 µM: read-out: BTK-C481S % @ 10 uM, @ 10 uM
Procedure: as §1, §2, §3

full-length activated BTK (wildtype), sequence (Q06187 whole entry): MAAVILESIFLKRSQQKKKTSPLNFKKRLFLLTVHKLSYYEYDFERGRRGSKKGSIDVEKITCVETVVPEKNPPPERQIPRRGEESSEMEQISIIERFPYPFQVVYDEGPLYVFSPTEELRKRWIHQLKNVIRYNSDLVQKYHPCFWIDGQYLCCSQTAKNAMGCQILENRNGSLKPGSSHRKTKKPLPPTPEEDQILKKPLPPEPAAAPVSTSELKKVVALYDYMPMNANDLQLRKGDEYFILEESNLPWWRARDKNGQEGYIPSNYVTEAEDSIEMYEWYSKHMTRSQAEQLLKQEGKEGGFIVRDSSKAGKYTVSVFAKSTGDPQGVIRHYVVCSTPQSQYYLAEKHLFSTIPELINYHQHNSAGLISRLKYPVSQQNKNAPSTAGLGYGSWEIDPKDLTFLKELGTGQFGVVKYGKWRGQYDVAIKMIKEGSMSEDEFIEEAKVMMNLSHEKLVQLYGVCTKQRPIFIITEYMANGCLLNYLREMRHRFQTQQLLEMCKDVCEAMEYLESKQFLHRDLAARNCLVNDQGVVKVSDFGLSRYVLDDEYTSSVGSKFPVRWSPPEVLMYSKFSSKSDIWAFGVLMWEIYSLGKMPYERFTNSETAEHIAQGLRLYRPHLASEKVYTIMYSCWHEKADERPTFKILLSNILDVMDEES
full-length activated BTK mutant C481S, sequence (Q06187 whole entry C481S): as the sequence (Q06187 whole entry) above, with C481S counted along it

CNC(=O)c1cccc(Oc2ccc(C(=O)c3c[nH]c4ncnc(N[C@@H]5CC[C@@H](CO)OC5)c34)c(Cl)c2)n1 [Compound I-319, 6-(3-chloro-4-(4-(((3R,6S)-6-(hydroxymethyl)tetrahydro-2H-pyran-3-yl)amino)-7H-pyrrolo[2,3-d]pyrimidine-5-carbonyl)phenoxy)-N-methyl picolinamide]
pIC50 [1]: 6.35 | pIC50 [2]: 6.90

CNC(=O)c1cccc(Oc2ccc(C(=O)c3c[nH]c4ncnc(N[C@@H]5CC[C@@H](CO)OC5)c34)cc2)n1 [Compound I-320, 6-(4-(4-(((3R,6S)-6-(hydroxymethyl)tetrahydro-2H-pyran-3-yl)amino)-7H-pyrrolo[2,3-d]pyrimidine-5-carbonyl)phenoxy)-N-methylpicolinamide]
pIC50 [1]: 6.47 | pIC50 [2]: 7.20

CN1C[C@H](Nc2ncnc3[nH]cc(C(=O)c4ccc(Oc5ccccc5)cc4Cl)c23)C[C@H]1CO [Compound I-342e, (2-chloro-4-phenoxyphenyl)(4-(((3R,5S)-5-(hydroxymethyl)-1-methylpyrrolidin-3-yl)amino)-7H-pyrrolo[2,3-d]pyrimidin-5-yl)methanone]
pIC50 [1]: 7.85 | pIC50 [2]: 7.48

O=C(c1ccc(Oc2ccccc2)cc1Cl)c1c[nH]c2ncnc(N[C@H]3CN[C@H](CO)C3)c12 [Compound I-345e, (2-chloro-4-phenoxyphenyl)(4-(((3R,5S)-5-(hydroxymethyl)pyrrolidin-3-yl)amino)-7H-pyrrolo[2,3-d]pyrimidin-5-yl)methanone]
pIC50 [1]: 8.00 | pIC50 [2]: 7.17

O=C(c1ccc(Oc2ccccc2)cc1Cl)c1c[nH]c2ncnc(NC[C@H]3CC[C@@H](CO)O3)c12 [Compound I-362e, (2-chloro-4-phenoxyphenyl)(4-((((2R,5S)-5-(hydroxymethyl)tetrahydrofuran-2-yl)methyl)amino)-7H-pyrrolo[2,3-d]pyrimidin-5-yl)methanone]
pIC50 [1]: 7.45 | pIC50 [2]: 7.35

O=C(c1ccc(Oc2ccccc2)cc1Cl)c1c[nH]c2ncnc(NC[C@H]3CN[C@H](CO)C3)c12 [Compound I-369e, (2-chloro-4-phenoxyphenyl)(4-((((3R,5S)-5-(hydroxymethyl)pyrrolidin-3-yl)methyl)amino)-7H-pyrrolo[2,3-d]pyrimidin-5-yl)methanone]
pIC50 [1]: 7.70 | pIC50 [2]: 6.86

CN1C[C@H](CNc2ncnc3[nH]cc(C(=O)c4ccc(Oc5ccccc5)cc4Cl)c23)C[C@H]1CO [Compound I-370e, (2-chloro-4-phenoxyphenyl)(4-((((3S,5S)-5-(hydroxymethyl)-1-methylpyrrolidin-3-yl)methyl)amino)-7H-pyrrolo[2,3-d]pyrimidin-5-yl)methanone]
pIC50 [1]: 7.23 | pIC50 [2]: 7.30

O=C(Nc1ccc(Cl)c(C(=O)c2c[nH]c3ncnc(N[C@@H]4CC[C@@H](CO)OC4)c23)c1)c1ccccc1 [Compound I-601, N-(4-chloro-3-(4-(((3R,6S)-6-(hydroxymethyl)tetrahydro-2H-pyran-3-yl)amino)-7H-pyrrolo[2,3-d]pyrimidine-5-carbonyl)phenyl)benzamide]
pIC50 [1]: 7.68 | pIC50 [2]: 6.94

O=C(Cc1ccccc1)Nc1ccc(Cl)c(C(=O)c2c[nH]c3ncnc(N[C@@H]4CC[C@@H](CO)OC4)c23)c1 [Compound I-602, N-(4-chloro-3-(4-(((3R,6S)-6-(hydroxymethyl)tetrahydro-2H-pyran-3-yl)amino)-7H-pyrrolo[2,3-d]pyrimidine-5-carbonyl)phenyl)-2-phenylacetamide]
pIC50 [1]: 6.85 | pIC50 [2]: 6.50

O=C(c1cc(NC(=O)C2CCOCC2)ccc1Cl)c1c[nH]c2ncnc(N[C@@H]3CC[C@@H](CO)OC3)c12 [Compound I-603, N-(4-chloro-3-(4-(((3R,6S)-6-(hydroxymethyl)tetrahydro-2H-pyran-3-yl)amino)-7H-pyrrolo[2,3-d]pyrimidine-5-carbonyl)phenyl)tetrahydro-2H-pyran-4-carboxamide]
pIC50 [1]: 6.33 | pIC50 [2]: 5.75

O=C(Nc1ccc(Cl)c(C(=O)c2c[nH]c3ncnc(N[C@@H]4CC[C@@H](CO)OC4)c23)c1)c1cncs1 [Compound I-604, N-(4-chloro-3-(4-(((3R,6S)-6-(hydroxymethyl)tetrahydro-2H-pyran-3-yl)amino)-7H-pyrrolo[2,3-d]pyrimidine-5-carbonyl)phenyl)thiazole-5-carboxamide]
pIC50 [1]: 6.52 | pIC50 [2]: 6.14

O=C(c1cc(NC(=O)C2(c3ccccc3)CC2)ccc1Cl)c1c[nH]c2ncnc(N[C@@H]3CC[C@@H](CO)OC3)c12 [Compound I-605, N-(4-chloro-3-(4-(((3R,6S)-6-(hydroxymethyl)tetrahydro-2H-pyran-3-yl)amino)-7H-pyrrolo[2,3-d]pyrimidine-5-carbonyl)phenyl)-1-phenylcyclopropane-1-carboxamide]
pIC50 [1]: 6.33 | pIC50 [2]: 5.73

O=C(Nc1ccc(Cl)c(C(=O)c2c[nH]c3ncnc(N[C@@H]4CC[C@@H](CO)OC4)c23)c1)c1cc2c(cn1)CCCC2 [Compound I-606, N-(4-chloro-3-(4-(((3R,6S)-6-(hydroxymethyl)tetrahydro-2H-pyran-3-yl)amino)-7H-pyrrolo[2,3-d]pyrimidine-5-carbonyl)phenyl)-5,6,7,8-tetrahydroisoquinoline-3-carboxamide]
pIC50 [1]: 9.01 | pIC50 [2]: 7.25

O=C(Nc1ccc(Cl)c(C(=O)c2c[nH]c3ncnc(N[C@@H]4CC[C@@H](CO)OC4)c23)c1)c1nccc2ccccc12 [Compound I-607, N-(4-chloro-3-(4-(((3R,6S)-6-(hydroxymethyl)tetrahydro-2H-pyran-3-yl)amino)-7H-pyrrolo[2,3-d]pyrimidine-5-carbonyl)phenyl)isoquinoline-1-carboxamide]
pIC50 [1]: 7.86 | pIC50 [2]: 6.67

O=C(Nc1ccccc1)Nc1ccc(Cl)c(C(=O)c2c[nH]c3ncnc(N[C@@H]4CC[C@@H](CO)OC4)c23)c1 [Compound I-608, 1-(4-chloro-3-(4-(((3R,6S)-6-(hydroxymethyl)tetrahydro-2H-pyran-3-yl)amino)-7H-pyrrolo[2,3-d]pyrimidine-5-carbonyl)phenyl)-3-phenylurea]
pIC50 [1]: 8.09 | pIC50 [2]: 6.73

O=C(Nc1cccnc1)Nc1ccc(Cl)c(C(=O)c2c[nH]c3ncnc(N[C@@H]4CC[C@@H](CO)OC4)c23)c1 [Compound I-609, 1-(4-chloro-3-(4-(((3R,6S)-6-(hydroxymethyl)tetrahydro-2H-pyran-3-yl)amino)-7H-pyrrolo[2,3-d]pyrimidine-5-carbonyl)phenyl)-3-(pyridin-3-yl)urea]
pIC50 [1]: 6.94 | pIC50 [2]: 6.28

COCCNC(=O)c1ccc(C(=O)c2c[nH]c3ncnc(N[C@@H]4CC[C@@H](CO)OC4)c23)c(Cl)c1 [Compound I-610, 3-chloro-4-(4-(((3R,6S)-6-(hydroxymethyl)tetrahydro-2H-pyran-3-yl)amino)-7H-pyrrolo[2,3-d]pyrimidine-5-carbonyl)-N-(2-methoxyethyl) benzamide]
pIC50 [1]: 6.31 | pIC50 [2]: 5.94

O=C(c1ccc(C(=O)N2CCOCC2)cc1Cl)c1c[nH]c2ncnc(N[C@@H]3CC[C@@H](CO)OC3)c12 [Compound I-611, (3-chloro-4-(4-(((3R,6S)-6-(hydroxymethyl)tetrahydro-2H-pyran-3-yl)amino)-7H-pyrrolo[2,3-d]pyrimidine-5-carbonyl)phenyl)(morpholino) methanone]
pIC50 [1]: 5.94 | pIC50 [2]: 5.82

O=C(c1cc(C(=O)N2CCOCC2)ccc1Cl)c1c[nH]c2ncnc(N[C@@H]3CC[C@@H](CO)OC3)c12 [Compound I-612, (4-chloro-3-(4-(((3R,6S)-6-(hydroxymethyl)tetrahydro-2H-pyran-3-yl)amino)-7H-pyrrolo[2,3-d]pyrimidine-5-carbonyl)phenyl)(morpholino) methanone]
pIC50 [1]: 5.79 | inhibition at 10 µM [2]: 82%

O=C(NCCN1CCOCC1)c1ccc(C(=O)c2c[nH]c3ncnc(N[C@@H]4CC[C@@H](CO)OC4)c23)c(Cl)c1 [Compound I-613, 3-chloro-4-(4-(((3R,6S)-6-(hydroxymethyl)tetrahydro-2H-pyran-3-yl)amino)-7H-pyrrolo[2,3-d]pyrimidine-5-carbonyl)-N-(2-morpholinoethyl) benzamide]
inhibition at 10 µM ([1]; read-out: BTK % @ 10 uM, @ 10 uM): 87% | inhibition at 10 µM [2]: 64%

N#Cc1cccc(NC(=O)c2ccc(C(=O)c3c[nH]c4ncnc(N[C@@H]5CC[C@@H](CO)OC5)c34)c(Cl)c2)c1 [Compound I-614, 3-chloro-N-(3-cyanophenyl)-4-(4-(((3R,6S)-6-(hydroxymethyl)tetrahydro-2H-pyran-3-yl)amino)-7H-pyrrolo[2,3-d]pyrimidine-5-carbonyl)benzamide]
pIC50 [1]: 6.85 | pIC50 [2]: 6.64

O=C(c1ccc(C(=O)N2CCc3ccccc3C2)cc1Cl)c1c[nH]c2ncnc(N[C@@H]3CC[C@@H](CO)OC3)c12 [Compound I-615, (2-chloro-4-(1,2,3,4-tetrahydroisoquinoline-2-carbonyl)phenyl)(4-(((3R,6S)-6-(hydroxymethyl)tetrahydro-2H-pyran-3-yl)amino)-7H-pyrrolo[2,3-d]pyrimidin-5-yl)methanone]
pIC50 [1]: 7.06 | pIC50 [2]: 7.47
